Source: patent US20240101561A1, “NOVEL TETRAZOLES” (Boehringer Ingelheim International GmbH, priority 2019, published 2024)

Legend:
[1] = biological target: human TRPA1 ion channel (Homo sapiens (Human), UniProt O75762); assay: Assay A: TRPA1 cell assay (FLIPR, AITC-induced intracellular calcium); type: cell-based; conditions: HEK293 cells over-expressing human TRPA1; AITC 10 μM agonist; FLIPRtetra; read-out: hTRPA1 IC50
Method: A human HEK293 cell line over-expressing the human TRPA1 ion channel (Perkin Elmer, Product No. AX-004-PCL) was used as a test system for compound efficacy and potency.
Compound activity was determined by measuring the effect of compounds on intracellular calcium concentration induced by AITC (Allylisothiocyanat) agonism in a FLIPRtetra system (Molecular Devices).
The cells were obtained as frozen cells in cryo-vials and stored until use at −150° C. Cells were grown in culture medium (MEM/EBSS medium with 10% FCS and 0.4 mg/ML Geneticin). […] For sub-culturing cells were detached from flasks by Versene. At the day before the assay, cells were detached, washed twice with medium (MEM/EBSS medium with 10% FCS) and 20000 cells in 20 μl/well were seeded to Poly D-Lysin biocoated 384-well plates (black, clear bottom, Cat.356697) from Corning. Plates were incubated for 24 hours at 37° C./5% CO2 before use in the assay.
The test compounds were dissolved in 100% DMSO at a concentration of 10 mM and in a first step diluted in DMSO to a concentration of 5 mM, followed by serial dilution steps in 100% DMSO. Dilution factor and number of dilution steps may vary according to needs. Typically 8 different concentrations by 1:5 dilutions were prepared, further intermediate dilutions (1:20) of the substances were carried out with HBSS/HEPES buffer (1×HEPES,Cat.14065 from Gibco, 20 mM HEPES, Cat. 83264 from SIGMA, 0.1% BSA Cat.11926 from Invitrogen, pH 7,4
At the assay day cells were washed 3× with assay puffer, 20 μL buffer remained in the wells after washing. 10 μL Ca6 kit (Cat.R8191 MolecularDevices) loading buffer in HBSS/HEPES was added to the cells and the plates were incubated with lid for 120 minutes at 37°/5% CO2. 10 μL of compound or controls in HBSS/HEPES buffer/5% DMSO from the intermediate dilution plate were carefully added to the wells. […] Finally 10 μL of the agonist AITC 50 μM dissolved in HBSS/HEPES buffer/0,05% DMSO (final concentration 10 μM) was added to the wells followed by an additional read on the FLIPRtetra device for 10 minutes. The area under the signal curve (AUC) after AITC addition was used for IC50/% inhibition calculations
Data Evaluation and Calculation:
Each assay microtiter plate contained wells with vehicle (1% DMSO) controls instead of compound as controls for AITC induced luminescence (100% CTL; high controls) and wells with vehicle controls without AITC as controls for non-specific changes in luminescence (0% CTL; low controls).
The analysis of the data was performed by the calculation of the area under signal curve of the individual wells. Based on this values the % value for the measurement of each substance concentration was calculated (AUC(sample)−AUC(low))*100/(AUC(high)−AUC(low)) using MegaLab software (in house development). The IC50 values were calculated from the % control values using MegaLab software. Calculation: [y=(a−d)/(1+(x/c){circle around ( )}b)+d], a=low value, d=high value; x=conc M; c=IC50 M; b=hill; y=ctrl

[2] = Assay B: Microsomal clearance; type: in vitro ADME, human; conditions: pooled liver microsomes, 1 μM test compound, 37° C., NADPH
Method: Assay B: Microsomal Clearance:
The metabolic degradation of the test compound is assayed at 37° C. with pooled liver microsomes. The final incubation volume of 100 μl per time point contains TRIS buffer pH 7.6 at RT (0.1 M), magnesium chloride (5 mM), microsomal protein (1 mg/ml) and the test compound at a final concentration of 1 μM.
Following a short preincubation period at 37° C., the reactions are initiated by addition of beta-nicotinamide adenine dinucleotide phosphate, reduced form (NADPH, 1 mM) and terminated by transferring an aliquot into solvent after different time points (0, 5, 15, 30, 60 min). Additionally, the NADPH-independent degradation is monitored in incubations without NADPH, terminated at the last time point. The [%] remaining test compound after NADPH independent incubation is reflected by the parameter c(control) (metabolic stability). The quenched incubations are pelleted by centrifugation (10000 g, 5 min).
An aliquot of the supernatant is assayed by LC-MS/MS for the amount of parent compound. The half-life (t½ INVITRO) is determined by the slope of the semilogarithmic plot of the concentration-time profile.
The intrinsic clearance (CL_[…]) is calculated by considering the amount of protein in the incubation:
CL_[…] [μl/min/mg protein]=(Ln 2/(half-life [min]*protein content [mg/ml]))*1000
CL_[…]_INVIVO [ml/min/kg]=(CL_[…] [μL/min/mg protein]×MPPGL [mg protein/g liver]×liver factor [g/kg bodyweight])/1000

[3] = Assay C: Hepatocyte clearance; type: in vitro ADME, human; conditions: cryopreserved hepatocyte suspension, incubated six hours
Method: Assay C: Hepatocyte Clearance
The metabolic degradation of the test compound is assayed in a hepatocyte suspension. Hepatocytes (cryopreserved) are incubated in. Dulbecco's modified eagle medium (supplemented with 3.5 μg glucagon/500 mL, 2.5 mg insulin/500 mL and 3.75 mg/500 mL hydrocortison) containing 5% or 50% species serum.
Following a 30 min preincubation in an incubator (37° C., 10% CO2) 5 μl of test compound solution (80 μM; from 2 mM in DMSO stock solution diluted 1:25 with medium) are added into 395 μl hepatocyte suspension (cell density in the range 0.25-5 Mio cells/mL depending on the species, typically 1 Mio cells/mL; final concentration of test compound final DMSO concentration 0.05%).
The cells are incubated for six hours (incubator, orbital shaker) and samples (25 μl) are taken at 0, 0.5, 1, 2, 4 and 6 hours. Samples are transferred into acetonitrile and pelleted by centrifugation (5 min). The supernatant is transferred to a new 96-deepwell plate, evaporated under nitrogen and resuspended.
Decline of Parent Compound is Analyzed by HPLC-MS/MS
CLint is calculated as follows CL_[…]=Dose/AUC=(C0/CD)/(AUD+clast/k)×1000/60. C0: initial concentration in the incubation [μM], CD: cell density of vital cells [10e6cells/mL], AUD: area under the data [μM×h], clast: concentration of last data point [μM], k: slope of the regression line for parent decline [h−1].
The calculated in vitro hepatic intrinsic clearance can be scaled up to the intrinsic in vivo hepatic Clearance and used to predict hepatic in vivo blood clearance (CL) by the use of a liver model (well stirred model).
CL_[…]_INVIVO [ml/min/kg]=(CL_[…] [μL/min/10e6cells]×hepatocellularity[10e6cells/g liver]×liver factor [g/kg bodyweight])/1000
CL [ml/min/kg]=CL_[…]_INVIVO [ml/min/kg]×hepatic blood flow [ml/min/kg]/(CL_[…]_INVIVO [ml/min/kg]+hepatic blood flow [ml/min/kg])

[4] = Assay D: Metabolism in human hepatocytes in vitro; type: in vitro ADME; conditions: primary human hepatocytes, 10 μM test compound, up to six hours
Method: Assay D: Metabolism in Human Hepatocytes In Vitro
The metabolic pathway of a test compound is investigated using primary human hepatocytes in suspension.
Following a 30 min preincubation in a cell culture incubator (37° C., 10% CO2), test compound solution is spiked into the hepatocyte suspension to obtain a final cell density of 1.0*10^6 to 4.0*10^6 cells/ml (depending on the metabolic turnover rate of the compound observed with primary human hepatocytes), a final test compound concentration of 10 μM, and a final DMSO concentration of 0.05%.
The cells are incubated for six hours in a cell culture incubator on a horizontal shaker, and samples are removed from the incubation after 0, 0.5, 1, 2, 4 or 6 hours, depending on the metabolic turnover rate. Samples are quenched with acetonitrile and pelleted by centrifugation. The supernatant is transferred to a 96-deepwell plate, evaporated under nitrogen and resuspended prior to bioanalysis by liquid chromatography-high resolution mass spectrometry for identification of putative metabolites.

Sequence of human TRPA1 ion channel (O75762 whole entry): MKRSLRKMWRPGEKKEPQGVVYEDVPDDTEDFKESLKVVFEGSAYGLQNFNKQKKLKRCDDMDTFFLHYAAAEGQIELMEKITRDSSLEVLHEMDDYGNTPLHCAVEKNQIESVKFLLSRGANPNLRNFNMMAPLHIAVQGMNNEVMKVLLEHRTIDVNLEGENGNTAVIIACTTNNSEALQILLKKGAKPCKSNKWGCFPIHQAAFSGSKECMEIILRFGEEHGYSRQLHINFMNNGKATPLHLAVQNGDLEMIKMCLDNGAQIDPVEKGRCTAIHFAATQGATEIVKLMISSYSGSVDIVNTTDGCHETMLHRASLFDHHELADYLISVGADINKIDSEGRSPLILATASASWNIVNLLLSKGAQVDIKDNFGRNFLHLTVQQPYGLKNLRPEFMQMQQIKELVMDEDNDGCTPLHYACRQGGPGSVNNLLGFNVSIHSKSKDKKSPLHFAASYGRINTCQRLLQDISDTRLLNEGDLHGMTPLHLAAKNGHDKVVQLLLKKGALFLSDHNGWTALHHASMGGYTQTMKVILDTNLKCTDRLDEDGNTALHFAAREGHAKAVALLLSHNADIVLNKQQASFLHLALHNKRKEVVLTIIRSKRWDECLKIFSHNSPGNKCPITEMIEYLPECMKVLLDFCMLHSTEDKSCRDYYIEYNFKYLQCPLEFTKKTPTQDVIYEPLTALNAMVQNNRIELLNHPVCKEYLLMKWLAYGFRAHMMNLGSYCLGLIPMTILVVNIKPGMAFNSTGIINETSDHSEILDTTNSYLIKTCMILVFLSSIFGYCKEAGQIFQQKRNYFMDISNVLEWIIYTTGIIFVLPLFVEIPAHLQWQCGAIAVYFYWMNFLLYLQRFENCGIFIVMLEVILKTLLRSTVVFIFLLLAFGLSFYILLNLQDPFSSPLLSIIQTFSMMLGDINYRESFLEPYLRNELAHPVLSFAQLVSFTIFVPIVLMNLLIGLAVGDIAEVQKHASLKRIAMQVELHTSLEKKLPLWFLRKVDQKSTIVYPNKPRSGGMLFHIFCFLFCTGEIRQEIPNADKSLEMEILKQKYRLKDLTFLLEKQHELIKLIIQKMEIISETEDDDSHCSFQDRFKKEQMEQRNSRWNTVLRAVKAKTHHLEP

Row | Compound | IC50 [1] [nM] | human LM [% Qh] [2] [% Qh] | human Hepatocytes [% Qh] [3] [% Qh] | Major metabolite observed: mechanism (Metabolite M1) [4]
1 | Cn1cnc2nc(N)n(Cc3nnn(C[C@H](O)c4ccc(Cl)cc4)n3)c(=O)c21 [Example 2] | 288 |  |  | 
2 | Cc1ccn2ncn(Cc3nnn(C[C@H](O)c4ccc(Cl)cc4)n3)c(=O)c12 [Example 3] | 75 | >89 |  | 
3 | O=c1c2scnc2ncn1Cc1nnn(C[C@H](O)c2ccc(Cl)cc2)n1 [Example 4] | 197 | <23 |  | 
4 | Cn1cnc2cnn(Cc3nnn(C[C@H](O)c4ccc(Cl)cc4)n3)c(=O)c21 [Example 7] | 275 | <23 |  | 
5 | Cn1cnc2ncn(Cc3nnn(C[C@H](O)c4ccc(Cl)cc4)n3)c(=O)c21 [Example 9, 1-({2-[(2R)-2-(4-chlorophenyl)-2-hydroxyethyl]-2H-1,2,3,4-tetrazol-5-yl}methyl)-7-methyl-6,7-dihydro-1H-purin-6-one] | 72 | <23 | <4 | 

These reach a lower IC50 [1]. Values come first.

Row | IC50 [1] [nM] | human LM [% Qh] [2] [% Qh] | human Hepatocytes [% Qh] [3] [% Qh] | Major metabolite observed: mechanism (Metabolite M1) [4] | Compound
6 | 35 | <23 | <4 |  | Cn1nnc2ncn(Cc3nnn(C[C@H](O)c4ccc(Cl)cc4)n3)c(=O)c21 [Example 1]
7 | 27 | <23 | 31 | N-Demethylation | Cc1nn(C)c2ncn(Cc3nnn(C[C@H](O)c4ccc(Cl)cc4)n3)c(=O)c12 [Example 5]
8 | 27 | <23 | 22 |  | Cc1ncn2ncn(Cc3nnn(C[C@H](O)c4ccc(Cl)cc4)n3)c(=O)c12 [Example 8]
